Measured values published in BindingDB's records for doi:10.1016/s0960-894x(01)00229-3 (Peking University, 2001).

Assay: Inhibitory activity against secretory Phospholipase A2 (s-PLA2) of Naja naja

**Q.** With COc1ccc2nc(Oc3ccccc3)cc(CC(N)=O)c2c1 [2-(6-Methoxy-2-phenoxy-quinolin-4-yl)-acetamide] as the compound, how does the IC50 read?
**A.** 1 µM

**Q.** Which IC50 does the source give for COc1ccc2nc(Oc3ccccc3)cc(C(N)=O)c2c1 [6-Methoxy-2-phenoxy-quinoline-4-carboxylic acid amide] here?
**A.** 10 µM
